In the METLIN SMRT retention time set (Domingo-Almenara et al. 2019):
One block for each compound: values may come before it.

Experiment: gradient 5% acetonitrile 3 min, to 50% in 2 min, to 85% in 15 min, held 3 min, 100 µL/min
Conditions: column: Zorbax Extend-C18 2.1 x 50 mm; eluents: water / acetonitrile, 0.1% formic acid
In short: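 Retention time was recorded from adduct peaks, which were picked computationally and each inspected manually. Pure standards ran in mixtures of ~100 molecules on HPLC coupled to a quadrupole time-of-flight mass spectrometer, in positive and negative ionization mode, through a Zorbax Extend-C18 column (2.1 × 50 mm, 1.8 μm) at 100 μL/min. Eluents were water and acetonitrile, each with 0.1% formic acid.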

Structure (SMILES): Cn1nc(C(=O)N2CCCC2)c2c1CCN(C(=O)CCC(=O)NCCC1=CCCCC1)C2
RP-LC retention time: 734 s

Structure (SMILES): Cc1csc(-c2cc(S(=O)(=O)NC3CCCC3)cn2CC(=O)N2CCCCC2)n1
RP-LC retention time: 934 s

Structure (SMILES): COCC1CN(C2CCC2)CC12CCN(C(=O)c1ccsc1)CC2 (centres undefined)
RP-LC retention time: 592 s

Structure (SMILES): CCCCCn1c(=O)c2ccccc2n(Cc2nc(-c3ccc(F)cc3)no2)c1=O
RP-LC retention time: 1270 s

Structure (SMILES): C=CCNC(=O)CN1C(=O)C2CCCCN2c2ccc(C(=O)N3CCCC3)cc21 (centres undefined)
RP-LC retention time: 838 s

Structure (SMILES): Cc1cc(C)cc(NS(=O)(=O)c2cc3c(s2)CCN(C(=O)C2CCC2)C3)c1
RP-LC retention time: 962 s

Structure (SMILES): O=C(NCc1ccccc1Br)c1cn2c(n1)COCC2
RP-LC retention time: 680 s

Structure (SMILES): CCc1nn2c(N3CCN(c4ccccn4)CC3)cc(C)nc2c1-c1ccc(F)cc1
RP-LC retention time: 686 s

Structure (SMILES): COC(=O)c1ccc2c(=O)n(-c3ccc(F)cc3)c(N3CCN(c4ccccn4)CC3)nc2c1
RP-LC retention time: 660 s

Structure (SMILES): CN(C)c1ncccc1C(=O)Nc1ccccc1Cl
RP-LC retention time: 716 s

Structure (SMILES): Cc1ccc(C)c(NC(=O)N(C)CC2CCOC2)c1 (centres undefined)
RP-LC retention time: 705 s

Structure (SMILES): CC(C)NCC(O)COc1ccccc1-n1cccc1 (centres undefined)
RP-LC retention time: 701 s

Structure (SMILES): Cc1cc(OC(C)C(=O)N2CCC3(O)CCCCC3C2)c2c3c(c(=O)oc2c1)CCCC3 (centres undefined)
RP-LC retention time: 892 s

Structure (SMILES): O=C(NCc1ccccc1Cl)c1c(O)c2cccnc2n(-c2ccc(F)cc2)c1=O
RP-LC retention time: 1240 s

Structure (SMILES): COCCNC(=O)CSc1nc(-c2ccc(F)cc2)[nH]c1-c1ccccc1
RP-LC retention time: 624 s

Structure (SMILES): O=C(NCc1noc(C2CCCCC2)n1)c1coc(C2CC2)n1
RP-LC retention time: 889 s

Structure (SMILES): Fc1ccc(CN2CCCCC2c2nncn2CC2CC2)cc1F (centres undefined)
RP-LC retention time: 619 s

Structure (SMILES): Clc1ccc2nc(N3CCOCC3)nc(-c3ccccc3)c2c1
RP-LC retention time: 882 s

Structure (SMILES): Cc1nc(C(=O)N2CCSCC2)c(C)o1
RP-LC retention time: 620 s

Structure (SMILES): COCc1noc(C2CN(C(=O)c3cn[nH]c3)CC23CCCC3)n1 (centres undefined)
RP-LC retention time: 637 s

Structure (SMILES): CC(C)Cc1ccc(S(=O)(=O)N2CCc3c(c(CN4CCN(C)CC4)nn3C)C2)cc1
RP-LC retention time: 687 s

Structure (SMILES): Cc1ccc(CNC(=O)c2ccc(Cn3c(C(F)(F)F)nc4cccnc43)cc2)cc1
RP-LC retention time: 943 s

Structure (SMILES): O=c1ccc(-c2nc(-c3ccncc3)no2)nn1Cc1cccc(Br)c1
RP-LC retention time: 919 s

Structure (SMILES): Cc1cc(C)c(NC(=O)COc2cc(C(F)(F)F)c3c(C)nn(C)c3n2)c(C)c1
RP-LC retention time: 1060 s

Structure (SMILES): CCCCNC(=O)c1c(OCC(C)C)cc(=O)n2c1CCCCC2
RP-LC retention time: 755 s

Structure (SMILES): Cc1nnc2ccc(-c3noc(-c4cccc5[nH]ccc45)n3)cn12
RP-LC retention time: 843 s

Structure (SMILES): CN(c1ncccc1CNc1nc(Nc2ccc3c(c2)CC(=O)N3)ncc1C(F)(F)F)S(C)(=O)=O
RP-LC retention time: 678 s

Structure (SMILES): CCOc1ccc(CC(=O)N2CCN(c3ccc(NC(=O)c4ccccc4)nn3)CC2)cc1
RP-LC retention time: 667 s

Structure (SMILES): Cc1cccc2sc(NC(=O)Cc3csc(Nc4ccc(Cl)cn4)n3)nc12
RP-LC retention time: 1140 s

Structure (SMILES): CSc1nc(C)c(Br)c(N2CC2)n1
RP-LC retention time: 596 s

The next lines start with the values.

RP-LC retention time: 684 s
Structure (SMILES): COC(=O)C1=C(C)NC2=C(C(=O)CC(C)(C)C2)C1c1cc(OC)c(OC)c(OC)c1 (centres undefined)

RP-LC retention time: 939 s
Structure (SMILES): CCN1C(=O)c2cccnc2Sc2cc(NC(=O)C3(c4ccc(OC)cc4)CC3)ccc21

RP-LC retention time: 840 s
Structure (SMILES): COC(=O)CN1C(=O)Nc2ccc(C)cc2C1c1ccccc1 (centres undefined)

RP-LC retention time: 598 s
Structure (SMILES): CCOc1ccc(CN2CCC3(CCC3O)CC2)cc1OCC (centres undefined)

RP-LC retention time: 961 s
Structure (SMILES): COc1ccc(C2C(=O)N(C3CCC(C)CC3)CC(=O)N2Cc2cccs2)cc1OC (centres undefined)

RP-LC retention time: 771 s
Structure (SMILES): CN1C(=O)Cc2cc(S(=O)(=O)NCc3ccc4c(c3)CCN4C(=O)c3ccccc3)ccc21

RP-LC retention time: 1100 s
Structure (SMILES): COc1ccc(-c2csc(Nc3ccc(Br)cn3)n2)cc1OC

RP-LC retention time: 599 s
Structure (SMILES): O=C(Cc1cccs1)N1CC(c2noc(C3CCCN3CC3CC3)n2)C1 (centres undefined)

RP-LC retention time: 662 s
Structure (SMILES): COc1ccc(S(=O)(=O)N2CCC[C@@H]2C(=O)NCc2csc(C)n2)cc1OC

RP-LC retention time: 644 s
Structure (SMILES): CC1CCCN(CC2CCN(S(=O)(=O)c3ccc(C#N)cc3)CC2)C1 (centres undefined)

RP-LC retention time: 956 s
Structure (SMILES): CC(NC(=O)CN1C(=O)C2CCCCN2c2ccc(S(=O)(=O)N3CCCC3)cc21)c1ccccc1 (centres undefined)

RP-LC retention time: 771 s
Structure (SMILES): O=C(Nc1nnc(C2CC(=O)N(c3ccc(F)cc3)C2)o1)c1ccc(Cl)cc1 (centres undefined)

RP-LC retention time: 1020 s
Structure (SMILES): CCOC(=O)c1cc(S(=O)(=O)N2CCCC2C(=O)N2CCC(Cc3ccccc3)CC2)cn1C (centres undefined)

RP-LC retention time: 784 s
Structure (SMILES): CCOC(=O)CNC(=O)N1CCCC1c1cccc(C)c1 (centres undefined)
